According to patent publication US20260083698A1, “Synergistic Stimulation of Mucociliary Clearance to Treat Mucus Obstruction in Cystic Fibrosis and Other Muco-Obstructive Disorders” (The Board of Trustees of the Leland Stanford Junior …, priority 2022, published 2026):

What was measured:
[1] = test system: CF ferret tracheas; assay: Mucociliary clearance velocity (MCCV) in ex vivo CF ferret tracheas; conditions: for MCCV: 10 μM forskolin, 0.3 μM carbachol, average of last 20 min of single drug period, 10 to 80 min after adding the combined agonists; for CF ferret MCCV response compared to WT ferrets: CF vs WT ferret (WT from ref 16)
Method: Synergistic increases of MCCV in CF ferrets and WT pigs. […] To determine if synergistic increases of MCCV could be produced in CF ferret tracheas, tracheas from 7 transgenic adult CF ferrets of mixed genotype were tested (see “Methods” section). […] SR, synergy response by the combined agonists: 19.95±4.12, (P=0.006 SR vs. Sum). Airway tissue procurement. CF ferret tissues. […] These ferrets were raised on the CFTR modulator VX770. […] Two […]/KO ferret tracheas were used for the tracheal, single gland mucus secretion rate assay. […] All isolated CF ferret tracheal trims (2-3 cm in length) were placed in DMEM culture medium immediately after euthanasia and shipped from the University of Iowa via overnight priority express. MCCV measurement. Details are in the previous reports (16,59,60). Briefly, each whole length ferret or piglet trachea, or a CF tracheal trim, was cut open along the mid-dorsal line and mounted mucosal side up onto a Sylgard elastomer platform. For pig experiments, tracheas from newborn piglets were used because tracheas from adult pigs that had been subjected to acute experiments, our source for submucosal gland experiment, had erratic MCC velocities due to epithelial damage secondary to intubation. […] Drugs were added by bath replacement with pre-warmed bath+drug(s).

[2] = test system: WT ferret tracheal glands; assay: Optical measurement of glandular mucus secretion rate, WT ferret
Excerpt: Synergistic glandular mucus secretion in WT pigs, WT ferrets, and CF ferrets. Synergistic increases in MCCV rely partly on increased mucus secretion from submucosal glands. This hypothesis arises from evidence that combinations of [Ca^2+]i-elevating and [cAMP]i-elevating agonists produce synergistically elevated rates of mucus from submucosal glands of humans (22), pigs (24), and ferrets (21). However, in those experiments different specific concentrations of agonists were used. To determine if the same protocols used here produced synergistic increases in secretion from submucosal glands, mucus secretion rates of individual tracheal glands in WT pigs and ferrets and in CF ferrets were measured via time-lapse optical imaging (28) while stimulating them with the same concentrations of agonists and durations of exposure used for MCCV studies. All secretion rates are reported as nanoliters/min/gland. WT Ferrets gave similar results (FIG. 3D-F). […] Data for individual WT control ferrets is shown in FIG. 3E for forskolin first and in FIG. 3F for carbachol first. Optical measurement of glandular mucus secretion rate. Details are in the previous report (28). […] Stored images were analyzed by direct measurement or with ImageJ software (V. 1.50i, https://imagej.nih.gov/ij/, NIH, MD/USA).

[3] = test system: piglet or ferret tracheal rings; assay: Airway narrowing: lumen area of thin sliced tracheal rings, carbachol; parameters: species or system pig; ferret; conditions: 0.3 mM carbachol alone
Method: FIG. 2. Elevating cAMP by adenylate cyclase activation inhibited muscle tension and airway narrowing to carbachol. (A, B) To measure muscle tension, one end of an isolated WT ferret trachealis muscle bundle was secured in a Sylgard-lined Petri dish filled with KRB solution and the other end was attached by 26-gauge wire to a previously calibrated strain gauge. […] (red closed circles). Averaged responses at 10 min intervals are shown for: (C) WT piglet tracheas (n=3-7) with forskolin. […] (F). CF ferrets (n=2, one CFTRΔF/ΔF and one CFTRΔF/G551D). […] Used alone they have opposite effects: Ca^2+-elevating agonists contract muscles whereas cAMP-elevating agonists relax them. For therapeutic use, the potential for producing unwanted bronchoconstriction with the combined agonists is a safety concern. […] Tension of ferret trachealis muscle bundles was measured to increasing carbachol concentrations±[…] forskolin. […] Importantly, the protective effect was also observed in CF ferrets (FIG. 2F). Airway smooth muscle contraction measurement. Two methods were used to measure tracheal smooth muscle contraction. One is designed to measure airway narrowing using thin sliced tracheal rings. Piglet or ferret tracheal ring preparations of ˜2 mm were submerged and securely pinned on a Sylgard-lined Petri dish filled with KRB solution at 37° C. and pH 7.4. […] The other method is using a force transducer. […]

[4] = test system: WT ferret tracheas; conditions: WT ferrets, obtained previously (16); cited from earlier work

C=C[C@@]1(C)CC(=O)[C@]2(O)[C@@]3(C)[C@@H](O)CCC(C)(C)[C@@H]3[C@H](O)[C@H](OC(C)=O)[C@@]2(C)O1 [forskolin]
MCCV ([1]; CF ferret tracheas): 0.18±0.09 mm/min | CF ferret MCCV response compared to WT ferrets [1]: ~0% | gland mucus secretion rate [2]: 0.26±0.07 nanoliters/min/gland

C[N+](C)(C)CCOC(N)=O [carbachol]
sustained reduction of lumen area [3]: 20-40% | MCCV ([1]; CF ferret tracheas): 3.29±2.08 mm/min | effect on MCCV ([1]; CF ferret tracheas, single agonist, 30 min): only a small increase | CF ferret MCCV response compared to WT ferrets [1]: ~40% | averaged MCCV of T10-30 to 0.3 μM carbachol in ferret (E) relative to ferrets (A) and (C) ([1]; individual CF ferrets, FIG. 7): less than 5% | MCCV [4]: 8.24±0.82 mm/min | gland mucus secretion rate [2]: 0.94±0.28 nanoliters/min/gland
